From article PMC6009892, “A novel series of pyrazole-platinum(II) complexes as potential anti-cancer agents that induce cell cycle arrest and apoptosis in breast cancer cells” (Journal of Enzyme Inhibition and Medicinal Chemistry, 2018)
Read-outs that look alike come from different tables or passages of the source.

Assays:
Assay type in all cases: cell-based, human
[1] = tested on: MDA-MB-231 breast cancer cells; assay: DNA fragmentation TUNEL assay, MDA-MB-231; conditions: MDA-MB-231, 20 μM, 24 h
Procedure: DNA fragmentation associated with apoptosis was examined by the terminal deoxynucleotidyltransferase (TdT)- mediated dUTP nick end labeling (TUNEL) method using a commercial assay kit (APO-Direct Kit; BD Pharmingen, San Diego, CA). After treatment, the cells were fixed with 1% paraformaldehyde in PBS (4°C, 30 min), washed in PBS, and permeabilised with ice-cold 70% ethanol. The APO-Direct Kit TUNEL assay was performed as described by the manufacturer. Briefly, the fixed cells were washed twice using the kit wash buffer, and after centrifugation the supernatant was discarded. The DNA labeling solution (containing TdT enzyme and FITC-dUTP) was added to the cell pellet, and the re-suspended mixture was incubated for 1 h at 37°C with occasional shaking. At the end of incubation time, rinse buffer was added, and after centrifugation the supernatant was discarded. We repeated the cell rinsing with rinse buffer, and then suspended the cell pellet in PI/RNase staining buffer. Cells were incubated at room temperature for 30 min and immediately analysed in a BD FACSCanto II flow cytometer. In total, 10,000 events were collected per test sample. The results were analysed with FACSDiva software (both from BD Biosciences Systems, San Jose, CA). The percentage of cells with distinctive apoptotic DNA strand breaks and distinguished by green fluorescent emission was calculated.

[2] = tested on: MCF-7 breast cancer cells; assay: MTT cell viability assay, MCF-7
Procedure: MCF-7, MDA-MB-231 (both human breast cancer cell lines), and fibroblast cells were obtained from American Type Culture Collection (ATCC, Manassas, VA, USA). DMEM and FBS used in a cell culture were from Gibco (USA). Glutamine, penicillin, and streptomycin were obtained from Quality Biologicals Inc. (USA). DMEM media was blended with 50 units/ml of penicillin, 50 μg/ml of streptomycin, 10% of FBS. All cell lines were cultured in 5% CO2 and fully humidified at 37 °C. Cells were cultured in Costar flasks and sub-confluent cells were detached with 0.05% trypsin and 0.02% ethylenediaminetetraacetic acid in calcium-free phosphate-buffered saline (PBS), counted in hemocytometers, and plated at 5 × 10^5 cells/well of six-well plates (Thermo Scientific, New York, NY, USA) in 2 ml of growth medium (DMEM without phenol red with 10% CPSR1). Cells reached about 80% of confluency at day 2, and in most cases such cells were used for the assays.
The viability of cultured cells was decided through assaying the reduction of MTT to formazan. In brief, MCF-7, MDA-MB-231, and fibroblast cells line were seeded at an initial density of 1 × 10^5 cells per well. Then, the cells were incubated at 37 °C for 24 h. Subsequently, cultured cells were treated with a medium containing concentrations (5, 10, 20, 30, 40, and 50 μM) of PtPz1–PtPz6 for 24 h and 48 h. After the incubation period, MTT was added into all wells in the final concentration of 0.5 mg/ml. After that, the cells were incubated at 37 °C for 4 h. Then, by removing the medium, 200 μl of DMSO was added to all wells. As a result, insoluble formazan was dissolved in DMSO (0.5%). At 570 nm (630 nm as a reference), the absorbance was measured in an Evolution 201 reader (Thermo Scientific, Waltham, MA).

[3] = tested on: caspase-9 in MCF-7 breast cancer cells; assay: FLICA caspase-9 activity, flow cytometry, MCF-7; conditions: MCF-7, 20 μM, 24 h
Procedure: Caspase-9 activity was measured using the FLICA Caspase 9 Assay Kit (ImmunoChemistry Technologies, Bloomington, MN, USA), according to the manufacturer’s instructions. Briefly, cultured MCF-7 and MDA-MB-231 breast cancer cells (1 × 10^6) were washed with cold PBS twice and re-suspended in buffer. We added 5 µl of diluted FLICA reagent and 2 µl of Hoechst 33342 to 93 µl of cell suspension and mixed by pipetting. The cells were incubated for 60 min at 37°C. After incubation, the cells were washed twice in 400 µl of apoptosis wash buffer and centrifuged at 300 × g. After the last wash, we re-suspended cells in 100 µl of apoptosis wash buffer supplemented with 10 µg/ml PI. Analysis was performed using the BD FACSCanto II flow cytometer, and the results were analysed with FACSDiva software (both from BD Biosciences Systems, San Jose, CA).

[4] = tested on: MCF-7 breast cancer cells; assay: Cell cycle analysis by flow cytometry (PI), MCF-7; conditions: breast cancer cells (MCF-7), 20 μM, 24 h, versus control
Procedure: Distribution of cell cycle phases was analysed by flow cytometry. Briefly, MCF-7 and MDA-MB-231 cells were seeded into six-well plates at a density of 2.5 × 10^5 cells per well and treated with 20 μM of PtPz1–PtPz6 for 24 h. After incubation, the cells were harvested and then fixed with 1 ml of 70% ethanol and kept overnight at −20 °C. Before analysis, the cells were re-suspended in PBS, treated with 50 μg/ml of DNase-free RNase A Solution (Promega), and stained with 100 μg/ml of PI. The FACSCanto II flow cytometer (BD Biosciences Systems, San Jose, CA) was used to read the fluorescence.

[5] = tested on: MCF-7 breast cancer cells; assay: Mitochondrial membrane potential JC-1, MCF-7; conditions: MCF-7, 20 μM, 24 h; untreated 7.4%
Procedure: Disruption of the MMP was assessed using the lipophilic cationic probe 5,5′,6,6′-tetrachloro-1,1′,3,3′-tetraethylbenzimidazolcarbocyanine iodide (JC-1 MitoScreen kit; BD Biosciences Systems, San Jose, CA), as described previously. Briefly, unfixed cells were washed and re-suspended in PBS supplemented with 10 µg/ml of JC-1. Cells were then incubated for 15 min at room temperature in the dark, washed, and re-suspended in PBS for immediate BD FACSCanto II flow cytometry analysis. The percentage of cells with disrupted MMP was calculated using FACSDiva software (both from BD Biosciences Systems, San Jose, CA).

[6] = tested on: MDA-MB-231 breast cancer cells; assay: Annexin V-FITC/PI flow cytometry, MDA-MB-231; conditions: MDA-MB-231, 20 μM, 24 h; for percent of cells with early and late apoptosis: control 7.1%
Procedure: (§1) To characterise the mode of cell death induced by PtPz1–PtPz6, a flow cytometry analysis was performed using Apoptosis Detection Kit II (BD Pharmingen, San Diego, CA), according to the manufacturer’s instructions. Cells (10000 cells measured) were analysed in a flow cytometer (BD FACSCanto II flow cytometer, San Jose, CA). Annexin V bound with high affinity to phosphatidylserine and thus could be used to identify cells in all stages of the programmed cell death. Propidium iodide (PI) stained cells with a disrupted cell membrane, and it could be used to identify late apoptotic and dead cells. Cells cultured in a drug-free medium were used as controls. […] Results were analysed with FACSDiva software (BD Biosciences Systems, San Jose, CA).

[7] = tested on: MCF-7 breast cancer cells; assay: Annexin V-FITC/PI flow cytometry, MCF-7; conditions: MCF-7, 20 μM, 24 h; for percent of cells with early and late apoptosis: control 8.5%
Procedure: as §1

[8] = MCF-7, 24 h incubation, 5-50 μM, read-out: IC50 (cell viability, MTT)
[9] = MCF-7, 48 h incubation, 5-50 μM, read-out: IC50 (cell viability, MTT)

Row | SMILES | IC50 [2, 8] | IC50 [2, 9] | percent of TUNEL positive cells [1] | percent of cells with active caspase-9 [3] | accumulation of cells in G2/M phase [4] | percent of cells with decrease ΔΨm [5] | percent of cells with early and late apoptosis [6] | viable cells ([6]; control 91.6%) | percent of cells with early and late apoptosis [7] | viable cells ([7]; control 89.7%) | IC50 ([2]; read-out: IC50 (additional test for cisplatin), MCF-7, 24 h, additional test in concentrations allowing to determine IC50) | IC50 ([2]; read-out: IC50 (additional test for cisplatin), MCF-7, 48 h, additional test in concentrations allowing to determine IC50)
1 | Cc1c[nH][n+]([Pt-2]2([n+]3[nH]cc(C)c3C)[N](c3ccc(C(=N)N)cc3)N=[N+](c3ccc(C(=N)N)cc3)[Pt-2]([n+]3[nH]cc(C)c3C)([n+]3[nH]cc(C)c3C)[N](c3ccc(C(=N)N)cc3)N=[N+]2c2ccc(C(=N)N)cc2)c1C.Cl.Cl.Cl.Cl.O.O [PtPz3, [Pt2(3,4-dimethylpyrazole)4(berenil)2]·4HCl·2H2O] | 23 ± 1 µM | 18 ± 1 µM | 50.4% | 43.4% | 2.0 fold | 86.2% |  |  |  |  |  | 
2 | Cc1cc(C)[n+]([Pt-2]2([n+]3c(C)cc(C)n3CO)[N](c3ccc(C(=N)N)cc3)N=[N+](c3ccc(C(=N)N)cc3)[Pt-2]([n+]3c(C)cc(C)n3CO)([n+]3c(C)cc(C)n3CO)[N](c3ccc(C(=N)N)cc3)N=[N+]2c2ccc(C(=N)N)cc2)n1CO.Cl.Cl.Cl.Cl.O.O [PtPz1, [Pt2(N-hydroxymethyl-3,5-dimethylpyrazole)4(berenil)2]·4HCl·2H2O] | 17 ± 2 µM | 11 ± 1 µM | 58.3% | 52.8% | 2.0 fold | 91.7% |  |  |  |  |  | 
3 | Cc1cc(C)[n+]([Pt-2]2([n+]3[nH]c(C)cc3C)[N](c3ccc(C(=N)N)cc3)N=[N+](c3ccc(C(=N)N)cc3)[Pt-2]([n+]3[nH]c(C)cc3C)([n+]3[nH]c(C)cc3C)[N](c3ccc(C(=N)N)cc3)N=[N+]2c2ccc(C(=N)N)cc2)[nH]1.Cl.Cl.Cl.Cl.O.O [PtPz2, [Pt2(3,5-dimethylpyrazole)4(berenil)2]·4HCl·2H2O] | 20 ± 2 µM | 13 ± 2 µM | 55.8% | 50.5% | 2.0 fold | 90.0% |  |  |  |  |  | 
4 | N.N.[Cl][Pt][Cl] [cisplatin, reference compound] | > 50 µM | > 50 µM | 8.9% | 8.2% |  |  | 10.1% |  | 10.4% |  | 93 ± 2 µM | 78 ± 1 µM

Now from value to molecule, other results behind:

Row | IC50 [2, 8] | IC50 [2, 9] | SMILES | percent of TUNEL positive cells [1] | percent of cells with active caspase-9 [3] | accumulation of cells in G2/M phase [4] | percent of cells with decrease ΔΨm [5] | percent of cells with early and late apoptosis [6] | viable cells ([6]; control 91.6%) | percent of cells with early and late apoptosis [7] | viable cells ([7]; control 89.7%) | IC50 ([2]; read-out: IC50 (additional test for cisplatin), MCF-7, 24 h, additional test in concentrations allowing to determine IC50) | IC50 ([2]; read-out: IC50 (additional test for cisplatin), MCF-7, 48 h, additional test in concentrations allowing to determine IC50)
5 | 28 ± 2 µM | 22 ± 2 µM | Cc1ccn[nH]1.Cc1ccn[nH]1.Cc1ccn[nH]1.Cc1ccn[nH]1.Cl.Cl.Cl.Cl.N=C(N)c1ccc(N=N[N]([Pt])c2ccc(C(=N)N)cc2)cc1.N=C(N)c1ccc(N=N[N]([Pt])c2ccc(C(=N)N)cc2)cc1.O.O [PtPz5, [Pt2(5-methylpyrazole)4(berenil)2]·4HCl·2H2O] | 31.6% | 39.6% |  |  |  |  |  |  |  | 
6 | > 50 µM | 48 ± 2 µM | CCn1ccc[n+]1[Pt-2]1([n+]2cccn2CC)[N](c2ccc(C(=N)N)cc2)N=[N+](c2ccc(C(=N)N)cc2)[Pt-2]([n+]2cccn2CC)([n+]2cccn2CC)[N](c2ccc(C(=N)N)cc2)N=[N+]1c1ccc(C(=N)N)cc1.Cl.Cl.Cl.Cl.O.O [PtPz6, [Pt2(N-ethylpyrazole)4(berenil)2]·4HCl·2H2O] | 13.2% | 24.1% |  |  | 18.6% | 79.4% | 17.2% | 80.9% |  | 
